# Laboratory results as given in patent US11364260B2, “Methods and compositions for administration of iron” (American Regent, Inc., priority 2006, dated 2022).
# Read-outs that look alike come from different tables or passages of the source.
# How the values were obtained:
# [1] = isotonic; cited from earlier work
# [2] = in vivo; cited from earlier work
# [3] = light scattering; cited from earlier work
# dextran antibodies = experiment: Reaction with dextran antibodies / dextran antigenicity test
# rabbit = experiment: Intra-arterial, perivenous, intravenous tolerance studies; assay type: in vivo
# mice = experiment: Single dose toxicity in mice
# [4] = system: patients with iron deficiency anemia or renal anemia; experiment: Safety assessments in patients with iron deficiency anemia and renal anemia; assay type: in vivo, human
# [5] = Iron (III) Control Release Test; assay type: physicochemical
# subjects with anemia [6] = experiment: Integrated safety studies (10 clinical studies A-J)
# Text: (§3) Study A was a single-center, single-dose escalation, randomized, double-blind, placebo-controlled pharmacokinetic study. Subjects were male and female, between 18 and 45 years of age, inclusive, with mild iron-deficiency anemia. […] Examined pharmacokinetic parameters included total serum iron and pharmacodynamic (serum ferritin and transferrin, iron binding capacity, % TSATpost, hemoglobin, reticulocyte, and serum transferrin receptor concentrations) endpoints. Examined safety parameters included adverse events, clinical laboratory evaluations, vital signs, ECG, and physical examinations.
# (§4) Study B was a single-center, single-dose, open label, uncontrolled pharmacokinetic study. Subjects were between 18 and 75 years of age with iron-deficiency or renal anemia with no other cause of anemia. Inclusion criteria included hemoglobin concentration between 9 and 13 g/dL, no blood transfusions in the previous 3 months, and no history of treatment with intravenous iron in the last 2 weeks. […] Examined primary pharmacokinetic parameters included the distribution of ^52Fe and incorporation of ^59Fe into red blood cells. Examined safety parameters included adverse events, clinical laboratory evaluations, vital signs, and physical examinations.
# (§5) Study C was an open-label, multicenter, randomized, multiple-dose, active-controlled postpartum anemia study. […] Where screening serum transferrin saturation (TSAT) was 20% or screening ferritin was 50 ng/mL, dosage=pre-pregnancy weight (kg)×(15−baseline hemoglobin [g/dL])×2.4+500 mg. Where screening TSAT was >20% and screening ferritin was >50 ng/mL, dosage=pre-pregnancy weight (kg)×(15−baseline hemoglobin [g/dL])×2.4. […] For primary efficacy, “success” was defined as an increase in hemoglobin of ≥2 g/dL anytime between baseline and end of study or time of intervention, while “failure” was defined as <2 g/dL increase in hemoglobin at all times between baseline and end of study or time of intervention. Examined safety parameters included adverse events, clinical laboratory evaluations, vital signs, and physical examinations.
# (§6) Study D was a multicenter, open-label, randomized, active-controlled, multiple-dose postpartum anemia study. Subjects were adult women ≥18 years old with postpartum anemia within 6 days after delivery. Treatment was administered once-weekly for a maximum of 3 infusions. […] Patients ≤66 kg received a minimum dose of 200 mg and a maximum dose of 15 mg iron/kg during each infusion. Patients >66 kg received a dose of 1000 mg on the first dosing occasion, and a minimum dose of 200 mg and a maximum dose of 1000 mg at each subsequent dosing. Doses of 200-400 mg were diluted in 100 cc NSS and 500-1000 mg were diluted in 250 cc NSS. Primary efficacy was examined as change from baseline levels of hemoglobin to Week 12. Examined safety parameters included adverse events in the mother and breast-fed infant, adverse events leading to discontinuation of treatment, vital signs, 12-lead electrocardiogram (ECG), physical examinations, and clinical laboratory panels.
# (§7) Study E was a multicenter, open-label, randomized, active-controlled, multiple-dose hemodialysis-associated anemia study.
# patients = experiment: Efficacy studies: pharmacodynamic effects (serum iron, TfS, serum ferritin); assay type: in vivo, human; details: single and repeated doses
# Text: The increase in serum ferritin levels illustrated the replenishment of the depleted iron stores, which is a well-identified and desired effect of iron therapy.
# rats [7] = experiment: Pre-clinical 13-week cumulative dose study in rats; assay type: in vivo; details: over 13 weeks
# [8] = In vitro and in vivo mutagenicity tests
# [9] = Single dose toxicity (LD50, acute toxicity); details: in vivo
# rodents = experiment: Single-dose toxicity studies, intravenous, rodents; assay type: in vivo
# subjects with anemia [10] = details: human, in vivo
# Text: as §3, §4, §5, §6, §7
# dogs [11] = experiment: Pre-clinical 13-week cumulative dose study in dogs; assay type: in vivo; details: over 13 weeks
# [12] = system: patients receiving regular hemodialysis; experiment: Multiple dose efficacy study in patients receiving regular hemodialysis; assay type: in vivo, human
# Text: However, elevated levels of ferritin and TfS indicating iron overload were avoided. In both of these studies, there was a gradual decrease in transferrin over time, also indicating successful iron replacement.
# rats [13] = experiment: Single dose toxicity in rats; assay type: in vivo
# [14] = Pharmacokinetic studies (total serum iron) in patients with iron deficiency anemia; assay type: in vivo, human
# Text: (§1) There was negligible renal elimination.
# [15] = PET pharmacokinetic study of 52Fe/59Fe labelled VIT-45 after i.v. administration; assay type: in vivo, human
# Text: See e.g., Beshara et al. (2003) Br. J. Haematol. 120(5): 853-859.
# as §1
# [16] = pH and osmolarity of the iron carbohydrate complex; assay type: physicochemical
# Text: (§2) It is within the skill of the art to test various characteristics of iron carbohydrate complexes as so determine amenability to use in the methods described herein. For example, pH and osmolarity are straightforward determinations performed on a sample formulation. Likewise, techniques such as electron micrograph imaging, transmission electron microscopy, and atomic force microscopy provide direct methods to analyze both iron core and particle size. See e.g., FIG. 1; Table 1. The stability of the carbohydrate complex can be assessed through physicochemical properties such as kinetic characteristics, thermodynamic characteristics, and degradation kinetics. See, Geisser et al. (1992) Arzneimittelforschung 42(12):1439-1452. Useful techniques to assess physical and electronic properties include absorption spectroscopy, X-ray diffraction analysis, transmission electron microscopy, atomic force microscopy, and elemental analysis. See, Kudasheva et al. (2004) J. Inorg. Biochem. 98:1757-1769. Pharmacokinetics can be assessed, for example, by iron tracer experiments. Hypersensitivity reactions can be monitored and assessed as described in, for example, Bailie et al. (2005) Nephrol. Dial. Transplant 20(7):1443-1449. Safety, efficacy, and toxicity in human subjects can be assessed, for example, as described in Spinowitz et al. (2005) Kidney Intl. 68:1801-1807.
# [17] = Core and particle size of iron carbohydrate complexes (electron micrographs); assay type: physicochemical
# Text: FIG. 1A-FIG. 1C are a series of electron micrographs that depict the particle size of three iron carbohydrate complexes. […] FIG. 1B is an electron micrograph depicting the particle size of Venofer® (an iron sucrose).
# as §2, with “Useful techniques to assess physical and electronic properties include absorption spectroscopy, X-ray diffraction analysis, transmission electron microscopy, atomic force microscopy, and elemental analysis. See, Kudasheva et al. (2004) J. Inorg. Biochem. 98:1757-1769.” left out, “Dial. Transplant 20(7):1443-1449.” left out, “68:1801-1807.” left out
# dogs [18] = experiment: Single-dose toxicity studies, intravenous, dogs; assay type: in vivo
# patients (Hb levels) = experiment: Multiple dose efficacy study, Cohorts 1 and 2 (Hb levels); assay type: in vivo, human
# Text: Efficacy of iron replacement therapy is interpreted mainly in terms of the ability to normalize Hb levels and iron stores. […] In one study, 37% and 48% of patients in Cohorts 1 and 2, respectively, had achieved normal Hb levels at the 4-week follow-up visit, and 75% and 73%, respectively, had achieved a ≥20 g/L increase in Hb on at least 1 occasion.
# [19] = calculated dose/first-dose 1,000 mg studies
substance,measurement,setting,value
polyglucose sorbitol carboxymethyl ether-coated non-stoichiometric magnetite [ferumoxytol],osmolarity,[1],297 mOsm/kg
same,blood half-life,[2],10 to 14 h
same,average colloidal particle size,[3],about 30 nm
"polynuclear iron (III)-hydroxide 4(R)-(poly-(1→4)-O-α-D-glucopyranosyl)-oxy-2(R),3(R),5(R),6-tetrahydroxy-hexanoate [VIT-45]",reaction with dextran antibodies,dextran antibodies,does not react with dextran antibodies
same,specific responses in dextran antigenicity test,dextran antibodies,no specific responses
same,treatment-related local tissue irritation,rabbit,No treatment-related local tissue irritation
same,highest non-lethal dose level,mice,1000 mg iron/kg b.w.
same,signs of illness,mice; single dose 250 mg iron/kg b.w. injected within 2 seconds,no signs of illness
same,iron overload,[4]; dosing schedules of the studies,Iron overload was avoided
same,deaths attributed to treatment,[4]; repeated-dose studies,no deaths
same,laboratory values reported as treatment-related treatment-emergent adverse events,[4]; repeated-dose studies,6 patients
same,patients who experienced serious adverse events (considered not related),[4]; repeated-dose studies,10 patients
same,withdrawals considered possibly related to treatment (allergic skin reactions),[4]; repeated-dose studies,2 withdrawals
same,serious adverse events or withdrawals due to adverse events,[4]; single-dose studies,no serious adverse events or withdrawals
same,Iron (III) Control Release Test T75,[5],117.8 min
same,incidence of premature discontinuation due to adverse events,subjects with anemia [6],2.1%
same,treatment-emergent adverse event: abdominal pain,subjects with anemia [6]; 1095 VIT-45 subjects,2.5%
same,treatment-emergent adverse event: blood phosphate decreased,subjects with anemia [6]; 1095 VIT-45 subjects,2.4%
same,treatment-emergent adverse event: headache,subjects with anemia [6]; 1095 VIT-45 subjects,8.6%
same,treatment-emergent adverse event: hypertension,subjects with anemia [6]; 1095 VIT-45 subjects,2.2%
same,treatment-emergent adverse event: hypotension,subjects with anemia [6]; 1095 VIT-45 subjects,2.0%
same,treatment-emergent adverse event: nasopharyngitis,subjects with anemia [6]; 1095 VIT-45 subjects,2.0%
same,treatment-emergent adverse event: nausea,subjects with anemia [6]; 1095 VIT-45 subjects,2.4%
same,incidence of other serious adverse events,subjects with anemia [6]; all completed multicenter studies,3%
same,drug-related treatment-emergent adverse event: blood phosphate decreased,subjects with anemia [6]; [19],3.3%
same,drug-related treatment-emergent adverse event: headache,subjects with anemia [6]; [19],3.9%
same,incidence of adverse events associated with investigations,subjects with anemia [6]; [19],9.1%
same,incidence of gastrointestinal disorders,subjects with anemia [6]; [19],15.2%
same,incidence of skin and subcutaneous tissue disorders,subjects with anemia [6]; [19],7.3%
same,incidence of treatment-emergent adverse events on the first day of dosing,subjects with anemia [6]; [19],6.8%
same,overall incidence of treatment-emergent adverse events,subjects with anemia [6]; [19],49.5%
same,incidence of adverse events leading to discontinuation,subjects with anemia [6]; completed multicenter studies,1.8%
same,incidence of gastrointestinal events,subjects with anemia [6]; completed multicenter studies,12.8%
same,incidence of premature discontinuations,subjects with anemia [6]; completed multicenter studies,10%
same,overall incidence of treatment-emergent adverse events,subjects with anemia [6]; completed multicenter studies,49.5%
same,serious adverse events or withdrawals due to related adverse events,"subjects with anemia [6]; open label clinical trials, about 1700 subjects, up to 1,000 mg over 15 minutes i.v.",no serious adverse events or withdrawals
same,incidence of other serious adverse events,"subjects with anemia [6]; placebo-controlled, single-dose crossover study",0.3%
same,time after initial dose at which decreases in blood phosphate were apparent,"subjects with anemia [6]; transient, asymptomatic",approximately 7 days
same,main pharmacodynamic effects,patients,"transient elevations of serum iron levels, TfS and serum ferritin"
same,"cumulative dose with no observed adverse effect level (clinical signs of iron accumulation in liver, spleen, kidneys)",rats [7],up to 117 mg iron/kg body weight
same,"clastogenic, mutagenic, chromosomal damage or bone marrow cell toxicity",[8],no evidence
same,acute toxicity relative to iron sucrose,[9],one-fifth
same,"safe and tolerated intravenous dose relative to 1,000 mg iron once weekly in humans",rodents,up to 60 times
same,changes in vital signs evaluations,subjects with anemia [10],no clinically meaningful changes
same,deaths attributed to treatment,subjects with anemia [10],no deaths
same,drug-related mild or moderate hypotension,subjects with anemia [10],0.2%
same,"drug-related mild or moderate hypotension, number of subjects",subjects with anemia [10],4 subjects
same,incidence of drug-related treatment-emergent adverse events of hypersensitivity,subjects with anemia [10],0.2%
same,median time to recovery of blood phosphate,subjects with anemia [10],approximately 2 weeks
same,"overall incidence of treatment-emergent adverse events, 200 mg versus 1000 mg doses",subjects with anemia [10],similar
same,"treatment-emergent adverse events indicative of potential allergic reactions (rash, pruritus, urticaria)",subjects with anemia [10],< 2%
same,"cumulative dose with no observed adverse effect level (clinical signs of iron accumulation in liver, spleen, kidneys)",dogs [11],up to 117 mg iron/kg body weight
same,patients who achieved an increase of Hb of ≥10 g/L at any point during the study,[12],61.7%
same,highest non-lethal dose level,rats [13],1000 mg iron/kg b.w.
same,maximal total serum iron concentration (Cmax),[14]; 500 mg dose,approximately 150 μg/mL
same,maximal total serum iron concentration (Cmax),[14]; 1000 mg dose,~320 µg/mL
same,renal elimination,"[14]; human, in vivo",negligible
same,calculated terminal half-life (t1/2),"[15]; i.v., patients",approximately 16 hours
same,distribution after intravenous administration,"[15]; in vivo, iv","mainly found in the liver, spleen, and bone marrow"
same,osmolarity,[16],physiological osmolarity
same,"Size of the Particle +/- SEM, Iron core",[17],4.4 ± 1.4 nm
same,"Size of the Particle +/- SEM, Total Particle",[17],6.7 ± 2.5 nm
same,"safe and tolerated intravenous dose relative to 1,000 mg iron once weekly in humans",dogs [18],up to 60 times
same,patients who achieved a ≥20 g/L increase in Hb on at least 1 occasion,patients (Hb levels); Cohort 1,75%
same,patients who achieved normal Hb levels,"patients (Hb levels); Cohort 1, 4-week follow-up visit",37%
same,patients who achieved a ≥20 g/L increase in Hb on at least 1 occasion,patients (Hb levels); Cohort 2,73%
same,patients who achieved normal Hb levels,"patients (Hb levels); Cohort 2, 4-week follow-up visit",48%
"ferrous sulfate [oral iron, reference compound]",incidence of premature discontinuation due to adverse events,subjects with anemia [6],3.1%
same,incidence of adverse events associated with investigations,subjects with anemia [6]; [19],3.9%
same,incidence of gastrointestinal disorders,subjects with anemia [6]; [19],31.0%
same,incidence of skin and subcutaneous tissue disorders,subjects with anemia [6]; [19],2.4%
same,incidence of treatment-emergent adverse events on the first day of dosing,subjects with anemia [6]; [19],2.7%
same,overall incidence of treatment-emergent adverse events,subjects with anemia [6]; [19],51.2%
same,incidence of adverse events leading to discontinuation,subjects with anemia [6]; completed multicenter studies,2.1%
same,incidence of gastrointestinal events,subjects with anemia [6]; completed multicenter studies,31.0%
same,incidence of premature discontinuations,subjects with anemia [6]; completed multicenter studies,9.6%
same,overall incidence of treatment-emergent adverse events,subjects with anemia [6]; completed multicenter studies,51.2%
same,incidence of drug-related treatment-emergent adverse events of hypersensitivity,subjects with anemia [10],0.2%
